Test results from patent US11414379B2, “SPAK kinase inhibitors as neuroprotective agents” (United States Government as represented by the Department …, priority 2018, dated 2022).
Read-outs that look alike come from different tables or passages of the source.

Key:
[1] = tested on: rats post-IVH (CSF hypersecretion); experiment: Rate of CSF production, post-hemorrhagic hydrocephalus model; format: in vivo, rat; details: ICV treatment for 48 hr
Procedure: All animal experiments were approved by the Institutional Animal Care and Use Committee (IACUC) of the Yale University, and in accordance with the guidelines and regulations in the NIH Guide for the Care and Use of Laboratory Animals. Male Wistar rats (Harlan, Indianapolis, Ind., USA), age 8 weeks (220-230 g), were anesthetized (60 mg/kg ketamine plus 7.5 mg/kg xylazine, IP) and allowed to breathe room air spontaneously. Body temperature was maintained at 37±1° C. (Harvard Apparatus, Holliston, Mass., USA) throughout the course of the experiments. PHH was modeled using a modified protocol based on previously described methods (Karimy et al. (2015) Nature medicine 23: 997-1003; Simard et al. (2011) Transl Stroke Res 2: 227-231). […]
Rates of CSF production were measured using the method we recently published (Karimy et al. (2015) Nature medicine 23: 997-1003). […] The volume (V) of CSF that forms at a given timepoint is calculated as: V (mm^3)=π·r^2·d, where r is the radius of the capillary tube and d is the distance CSF traveled within the capillary. The rate of CSF formation (μL/min) can be calculated from the slope of the volume-time relationship. A baseline rate of spontaneous CSF secretion (no drug infusion) was calculated over 30 minutes prior to drug infusion, then compared to the calculated rate of CSF formation following 30 minutes of ZT-1a infusion. […]

GST-[T233E]SPAK kinase = molecular target: T1, GST-[T233E]SPAK kinase (Homo sapiens, UniProt Q9UEW8, T231E); experiment: SPAK kinase assay employing CATCHtide; format: biochemical
T1 construct: made in house; host or cells: E. coli
Procedure: SPAK kinase assays employing CATCHtide (cation chloride co-transporter peptide substrate). Peptide kinase assays, performed in triplicate, were set up in a total volume of 50 μl containing 0.5 μg GST-[T233E]SPAK kinase (˜5 nM at ˜10% purity) in 50 mM Tris/HCl, pH 7.5, 0.1 mM EGTA, 10 mM MgCl2, 300 μM CATCHtide ([…]; SEQ ID NO:1), […] [γ-32P]ATP (˜500 cpm/pmol) and the indicated concentrations of inhibitor dissolved in DMSO. After incubation for 30 min at 30° C., reactions were terminated by spotting 40 μl of the reaction mix onto P81 phosphocellulose paper and immersion in 50 mM phosphoric acid. The papers were washed extensively and the incorporation of [γ-^32P]ATP into CATCHtide was quantified by Cerenkov counting. IC^50 values were calculated with GraphPad Prism using non-linear regression analysis.
Referring to FIG. 7A, the activation of SPAK kinase by MO25α is shown. SPAK was assayed in the absence or presence of five-fold molar excess of wild-type MO25α.
Referring to FIG. 7B, kinetic data was determined for ZT-1a in the absence or presence of five-fold molar excess of wild-type MO25α. Data points are the average of three determinations, and the error bars are +/−SEM.

[2] = parameters: species or system ICR mice; details: ICR, mouse, in vivo
Procedure: Referring to Table 3, ZT-1a pharmacokinetics were determined following a single 5 mg/kg intravenous (IV) dose and a single 10 mg/kg oral (PO) dose in ICR mice (N=3 at each time point). Blood samples were collected at 0.08, 0.25, 0.5, 1, 2, 4, 8, 10 & 24 hr (IV) & 0.25, 0.5, 1, 2, 4, 8, 10 & 24 hr (PO) post dose. Samples were subjected to drug assay by LC-MS/MS, and data were analyzed by WinNonlin V6.3. Tmax=time of maximum plasma concentration, Cmax=maximum plasma concentration, AUC=area under the curve (measure of exposure), T1/2=half life, CL=plasma clearance, Vz=volume of distribution, MRT, mean residence time; F=oral bioavailability.

Structure (SMILES): Cc1cc(C(C#N)c2ccc(Cl)cc2)c(Cl)cc1NC(=O)c1cc(Cl)ccc1O (centres unmarked) [ZT-1a, 5-chloro-N-(5-chloro-4-((4-chlorophenyl)(cyano)methyl)-2-methylphenyl)-2-hydroxy-benzamide]
- decrease of post-IVH CSF hypersecretion [1]: ~57±6.2%
- change of IC50 values by addition of MO25α (GST-[T233E]SPAK kinase): not significantly altered
- change of IC50 values with increasing ATP concentrations (GST-[T233E]SPAK kinase; SPAK activity at different ATP concentrations): unchanged
- IC50 (GST-[T233E]SPAK kinase; absence of wild-type MO25α): 40.5 µM
- IC50 (GST-[T233E]SPAK kinase; presence of five-fold molar excess of wild-type MO25α): 41.3 µM
- AUC [2]: 2340 ng·h/mL
- C0 ([2]; iv, 5 mg/kg): 14900 ng/mL
- Cl ([2]; iv, 5 mg/kg): 35.5 mL/kg/min
- MRT(0-∞) ([2]; iv, 5 mg/kg): 0.45 h
- Vz ([2]; iv, 5 mg/kg): 0.948 L/kg
- MRT(0-∞) ([2]; po, 10 mg/kg): 3.3 h
